Series [1] concerns Ba/F3 FLT3-ITD pMIT-Empty.
Method: (§4) CellTiter 96 Aqueous MTS reagent (Promega, Madison, WI) was added to cells followed by a 3-h incubation at 37 °C, 5% CO2. The absorbance was measured at 490 nm using DTX 880 plate reader and the half maximal inhibitory concentration (IC50) was calculated using GraphPad Prism 7 (GraphPad Software, La Jolla, CA) and SAS/STAT software (SAS v9.4 for Windows, SAS Institute, Inc., Cary, NC).
The nature of series [2]: Toxicity in xenograft mouse studies. Format: in vivo. Particulars: xenograft mice, 50 mg/kg daily oral. On the procedure: (§1) All experiments were conducted after approval of The Ohio State University Institutional Animal Care and Use Committee. Mice were randomized and enrolled for daily oral gavage (Q.D.P.O) treatment of vehicle or 50 mg/kg ARQ 531. Mice were treated until reaching early removal criteria (ERC) defined as 20% weight loss, lethargy, hind limb paralysis, moribund, anorexia, dehydration, hunched posture, severe diarrhea, breathing difficulties, or any abnormal neurological symptoms.

Series [3] in a line: MTT proliferation assay 72 h, Ba/F3 lines with FLT3-ITD, TKD or both (all lines together). Format: cell-based, murine. The following applies: Mus musculus, BaF3, range across cell lines, read-out: IC50 range over the Ba/F3 FLT3 mutant cell lines.
The next series has as its target FLT3-ITD (Homo sapiens, UniProt P36888, ITD). The experiment in a line: Biochemical assay of recombinant kinases, FLT3-ITD. Particulars: recombinant kinase domain, 10 μmol/L ATP. As to the method: Biochemical inhibition of FLT3-WT and FLT3-ITD fusion was measured using recombinant protein constructs of kinase domains (Reaction Biology).
The test system of the next series is Ba/F3 FLT3-D835Y. The experiment in a line: MTT proliferation assay 72 h, Ba/F3 FLT3-D835Y. Particulars: Mus musculus, BaF3, read-out: Estimated absolute µM IC50 and 95% CI. Format: cell-based, murine.
The subject of series [4] is primary AML patient blasts. The experiment in a line: Colony-Forming Unit-Granulocyte and Macrophage (CFU-GM) assay. Format: cell-based, human. The following applies: 3 µM, colonies counted after 14 days. On the procedure: Primary AML patient samples were treated and plated at 5000–10,000 cells in 1.1 ml methylcellulose supplemented with recombinant human stem cell factor, interleukin 3, granulocyte colony-stimulating factor, and granulocyte-macrophage colony-stimulating factor (MethoCult™, […] Technologies, Vancouver, Canada) per dish in duplicates. Colonies were counted after 14 days when using primary patient samples.
MTS proliferation assay using a human stroma co-culture assay. […] FLT3 wild-type (WT) samples (red) and FLT3-ITD (black). Colony-Forming Unit-Granulocyte and Macrophage (CFU-GM) assay. […] Number of colonies were counted after 14 days (c)

In series [5] the test system is phosphorylation of Tyrosine 416 of the SFK. The experiment in a line: Immunoblot of phospho-SFK Tyr416. Particulars: MOLM-13, MV4-11, and OCI-AML3, 10-min treatment. Format: cell-based, human. As to the method: (§2) Cell lines were serum starved overnight followed by a 10-min treatment. Cells were washed in ice-cold PBS then lysed in 1X Cell Lysis Buffer (CST) supplemented with proteinase and phosphatase inhibitors cocktail (Roche). Pierce BCA Protein Assay was used to quantify the protein lysates (Thermo Fisher Scientific, Waltham, MA). For Immunoblotting, 15–25 μg of protein lysate was prepared in 2X or 4X Laemmeli’s sample buffer (Bio-Rad Laboratories, Hercules, CA) and heated for 5 min at 100 °C. Samples were separated on 8% sodium dodecyl sulfate polyacrylamide gel and transferred onto nitrocellulose membrane (Bio-Rad Laboratories, Hercules, CA). The membranes were blocked for 1 h in Blocker BLOTTO Blocking Buffer (Thermo Fisher Scientific, Waltham, MA) or 5% non-fat milk followed by overnight incubation at 4 °C with primary antibody followed by HRP-conjugated secondary antibodies and visualized with chemiluminescent Pierce ECL Substrate (Thermo Fisher Scientific, Waltham, MA) on X-ray films.
(§3) Immunoblot analysis for MOLM-13, MV4-11, and OCI-AML3 AML cell lines (representative of 2-3 independent blots). […] Twenty to 25 μg of total protein lysate was loaded per lane.

A further series concerns THP-1. The series can be described thus: MTS proliferation assay 72 h, THP-1. Format: cell-based, human.
The test system of series [6] is MOLM-13 disseminated AML xenograft. The experiment in a line: MOLM-13 disseminated xenograft, single agent study (NSG mice). Format: in vivo. As to the method:
as §1
A total of 10,000 luciferase expressing MOLM-13 cells were engrafted via tail vein injection in NSG mice (The Jackson Laboratory, Bar Harbor, ME) for the single agent ARQ 531 study or NCG mice (Charles River Laboratories, Wilmington, MA) for the ARQ 531 + venetoclax (ARQ + Ven) combination study. For the first single agent ARQ 531 study, mice were treated 7 days post-engraftment. Due to the aggressiveness of the MOLM-13 model, mice were treated 4 days post-engraftment in the ARQ + Ven combination study. In both studies, mice were treated daily via oral gavage with vehicle (10% absolute alcohol, 10% Cremophor-EL, 80% saline) or 50 mg/kg ARQ 531, and 75 mg/kg venetoclax ± 50 mg/kg ARQ 531 for the combination study. Weekly in vivo imaging was performed using In Vivo Imaging System (IVIS) imager (PerkinElmer, Waltham, MA).
Kaplan–Meier survival curve in the MOLM-13 disseminated AML xenograft model. […]

Details of series [7]: method as in doi:10.1182/blood-2018-99-116338. Particulars: dose escalation study; cited from earlier work.
For a further series, the system named is MOLM13-Res. The experiment in a line: MTT proliferation assay 72 h, MOLM13-Res (D835Y). Format: cell-based, human. An excerpt:
As one of the main resistance mechanisms to FLT3 inhibitors is the acquisition of TKD mutations, we tested the anti-proliferative activity of ARQ 531 in the MOLM-13 TKI-resistant (MOLM13-Res) cell line previously described in Zimmerman et al.. In this model, MOLM-13 cells have gained a D835Y mutation via continuous exposure to the FLT3 inhibitor tandutinib.

Series [8] has as its system Ba/F3 FLT3-ITD pMIT SYK-TEL.
Method: as §4
The subject of series [9] is phosphorylated SFK, FLT3, STAT5, and ERK. The experiment in a line: Immunoblot of phosphorylated SFK, FLT3, STAT5 and ERK in FLT3-ITD cell lines. Particulars: MOLM-13 and MV4-11, serum starved, 10-min treatment. Format: cell-based, human. As to the method: as §2, §3

pIC50: −log10 of the molar value. “And” between values parts separate entries of the source, which are not always exact repeats. Identical values can stand only once. Like-named read-outs stand apart in the source and are kept apart here.

Sequence of FLT3-ITD (P36888 564-993, stated change not applied): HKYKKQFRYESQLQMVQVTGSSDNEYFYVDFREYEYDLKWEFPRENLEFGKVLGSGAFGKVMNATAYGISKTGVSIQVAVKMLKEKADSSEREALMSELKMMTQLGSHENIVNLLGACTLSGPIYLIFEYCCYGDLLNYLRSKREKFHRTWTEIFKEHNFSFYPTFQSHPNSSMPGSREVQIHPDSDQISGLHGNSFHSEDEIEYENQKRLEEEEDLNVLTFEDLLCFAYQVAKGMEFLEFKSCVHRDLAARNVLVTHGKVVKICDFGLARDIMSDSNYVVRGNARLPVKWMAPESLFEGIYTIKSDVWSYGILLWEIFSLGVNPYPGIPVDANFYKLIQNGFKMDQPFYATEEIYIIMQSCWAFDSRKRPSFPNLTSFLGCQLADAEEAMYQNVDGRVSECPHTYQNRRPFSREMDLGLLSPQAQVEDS
Method for Ba/F3 FLT3-D835Y: For the MOLM-13 resistant and the Ba/F3-FLT3-ITD/TKD cell lines, cells were treated for 72 h and cell viability was evaluated using MTT assay (Roche Diagnostics. Mannheim. Germany) according to the manufacturer’s instructions.
Method for Ba/F3 FLT3-ITD Parental: as §4
Method for THP-1: A total of 5000–30,000 cells from the lines above were treated in a 96-well plate for 72 h. CellTiter 96 Aqueous MTS reagent (Promega, Madison, WI) was added to cells followed by a 3-h incubation at 37 °C, 5% CO2. The absorbance was measured at 490 nm using DTX 880 plate reader and the half maximal inhibitory concentration (IC50) was calculated using GraphPad Prism 7 (GraphPad Software, La Jolla, CA) and SAS/STAT software (SAS v9.4 for Windows, SAS Institute, Inc., Cary, NC). For the MOLM-13 resistant and the Ba/F3-FLT3-ITD/TKD cell lines, cells were treated for 72 h and cell viability was evaluated using MTT assay (Roche Diagnostics. Mannheim. Germany) according to the manufacturer’s instructions.

For the compound `O=C(c1ccc(Oc2ccccc2)cc1Cl)c1c[nH]c2ncnc(N[C@@H]3CC[C@@H](CO)OC3)c12` [ARQ 531], the pIC50 in [1] is 5.37 and 5.57 and 5.46; in series [3], 5.12 to 5.92; at FLT3-ITD it was 6.48; with Ba/F3 FLT3-ITD Parental, 5.57 and 5.60; in series [8] it was 4.96 and 5.23 and 5.18. In addition, the toxicity entry in series [2] was “lack of toxicity”. For the same compound, the IC50 in the series with Ba/F3 FLT3-D835Y was 6.11 µM; in the series with MOLM13-Res (Homo sapiens, read-out: Estimated absolute µM IC50 and 95% CI, MTT, 72 h), 3.42 µM; in the series with MOLM13-Res (read-out: Estimated absolute µM IC50 and 95% CI, MTT), 3.4 µM. The “Estimated ratio of colony formation vs. DMSO” value in [4] is 0.45. In [5], the “inhibition of phosphorylation of Tyrosine 416 of the SFK” value is reported as “potently inhibited”. Further, in the series with THP-1, the “resistant to concentrations up to” value is above 10 µM. Moreover, the “Estimated absolute µM IC50 (95% CI)” value in the series on THP-1 (4-parameter logistic model) is “Unable to calculate IC50”. Also, the median survival in series [6] (50 mg/kg Q.D.P.O from 7 days post-engraftment until ERC, vehicle 21 days) was determined as 23 days. For the same compound, in series [6] (50 mg/kg Q.D.P.O, log-rank p value = 0.002), the “median survival advantage vs vehicle” value was 2 days. In series [7], the “treatment emergent adverse events” value is recorded as “no reported treatment emergent adverse events”. In series [9], the “concentration inhibiting phosphorylated levels of SFK, FLT3, STAT5, and ERK” value was at most 500 nM.

The values are drawn from paper PMC6988309, “Preclinical efficacy for a novel tyrosine kinase inhibitor, ArQule 531 against acute myeloid leukemia” (Journal of Hematology & Oncology, 2020).
